Assay results from US7342027B2 (Yuhan Corporation, priority 2002, dated 2008).
Structures can show the parent of a compound that is named as a salt.

target: T1, Recombinant human cathepsin K (Homo sapiens, UniProt P43235); experiment: Inhibition of cathepsin K activity (Z-Phe-Arg-AMC fluorescence assay); type: biochemical; conditions: 25 uM Z-Phe-Arg-AMC, pH 5.5, 1 hour at 37° C.
T1 construct: made in house
T1 sequence (P43235 115-329): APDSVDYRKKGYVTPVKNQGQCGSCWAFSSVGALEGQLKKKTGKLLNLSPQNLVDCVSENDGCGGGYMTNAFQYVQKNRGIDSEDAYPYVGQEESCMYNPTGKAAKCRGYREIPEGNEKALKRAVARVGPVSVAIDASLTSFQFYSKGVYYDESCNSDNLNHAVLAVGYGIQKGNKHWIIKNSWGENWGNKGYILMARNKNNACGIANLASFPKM
Experimental: Test 1: Inhibition of Cathepsin K Activity
Recombinant human cathepsin K was prepared in accordance with Biol, Pharm. Bull, 19(8), 1026-1031 (1996) and J. Biol. Chem. 271, 2126-2132 (1996). Stock solutions of 2.5 mM Z-Phe-Arg-AMC (BACHEM, 1-1160) and all inhibitors were prepared in dimethyl sulfoxide. In vitro assays for cathepsin K were conducted with 25 uM Z-Phe-Arg-AMC as a substrate at pH 5.5 in 100 mM Na acetate buffer containing 20 mM cysteine and 5 mM EDTA in the presence of 2% final concentration of DMSO. Reaction was initiated by the addition of enzyme to samples, which were then incubated for 1 hour at 37° C. The fluorescence was monitored at 460 nm (excitation wavelength 360 nm) using fluorescence plate reader.
The concentrations of the test compounds, which inhibit 50% of cathepsin K activity, are represented as IC50 in Table 1.

In order of rising IC50:
1. CC(C)(C)OC(=O)c1ccccc1N1CCC(NC(=O)C2(NC(=O)c3cc4ccccc4s3)CCCCC2)C(=O)C1 (stereo not shown) [Example 129, 4-[N-[1-[N-(benzothiophen-2-ylcarbonyl)amino]cyclohexanecarbonyl]amino]-1-(2-tert-butoxycarbonylphenyl)piperidin-3-one]  0.45 nM
2. COC(=O)Nc1ccccc1N1CCC(NC(=O)C2(NC(=O)c3cc4ccccc4o3)CCCCC2)C(=O)C1 (stereo not shown) [Example 49, 4-[N-[1-[N-(benzofuran-2-ylcarbonyl)amino]cyclohexanecarbonyl]amino]-1-[2-[N-(methoxycarbonyl)amino]phenyl]piperidin-3-one]  0.45 nM
3. CS(=O)(=O)c1ccccc1N1CCC(NC(=O)C2(NC(=O)c3cc4cc(OCCN5CCOCC5)ccc4o3)CCCCC2)C(=O)C1 (stereo not shown) [Example 164, 4-[N-[1-[N-(5-(2-morpholinethoxy)benzofuran-2-ylcarbonyl)amino]cyclohexanecarbonyl]amino]-1-(2-methanesulfonylphenyl)piperidin-3-one hydrochloride]  0.52 nM
4. CCN(CC)c1ccc(C(=O)NC2(C(=O)NC3CCN(c4ccc(F)cc4S(C)(=O)=O)CC3=O)CCCCC2)cc1 (stereo not shown) [Example 172, 4-[N-[1-[N-(4-(diethylamino)benzoyl)amino]cyclohexanecarbonyl]amino]-1-(4-fluoro-2-methanesulfonylphenyl)piperidin-3-one]  0.58 nM
5. CS(=O)(=O)Nc1cc(F)ccc1N1CCC(NC(=O)C2(NC(=O)c3ccc(OCCN4CCOCC4)cc3)CCCCC2)C(=O)C1 (stereo not shown) [Example 169, 4-[N-[1-[N-(4-(2-morpholinethoxy)benzoyl)amino]cyclohexanecarbonyl]amino]-1-(4-fluoro-2-methanesulfonylaminophenyl)piperidin-3-one]  0.58 nM
6. CN(C)c1ccc(C(=O)NC2(C(=O)NC3CCN(c4ccc(F)cc4S(C)(=O)=O)CC3=O)CCCCC2)cc1 (stereo not shown) [Example 171, 4-[N-[1-[N-(4-(dimethylamino)benzoyl)amino]cyclohexanecarbonyl]amino]-1-(4-fluoro-2-methanesulfonylphenyl)piperidin-3-one]  0.77 nM
7. CCN(CC)c1ccc(C(=O)NC2(C(=O)NC3CCN(c4ccc(F)cc4S(C)(=O)=O)CC3=O)CCCCC2)cc1 (stereo not shown) [Example 174, 4-[N-[1-[N-(4-(diethylamino)benzoyl)amino]cyclohexanecarbonyl]amino]-1-(4-fluoro-2-methanesulfonylphenyl)piperidin-3-one hydrochloride]  1 nM
8. O=C(CCCCl)Nc1ccccc1N1CCC(NC(=O)C2(NC(=O)c3cc4ccccc4o3)CCCCC2)C(=O)C1 (stereo not shown) [Example 50, 4-[N-[1-[N-(benzofuran-2-ylcarbonyl)amino]cyclohexanecarbonyl]amino]-1-[2-[N-(4-chlorobutyryl)amino]phenyl]piperidin-3-one]  1.2 nM
9. O=C(NC1(C(=O)NC2CCN(c3ccccc3NC(=O)C3CC3)CC2=O)CCCCC1)c1cc2ccccc2o1 (stereo not shown) [Example 53, 4-[N-[1-[N-(benzofuran-2-ylcarbonyl)amino]cyclohexanecarbonyl]amino]-1-[2-[N-(cyclopropanecarbonyl)amino]phenyl]piperidin-3-one]  1.22 nM
10. O=Cc1ccccc1N1CCC(NC(=O)C2(NC(=O)c3cc4ccccc4o3)CCCCC2)C(=O)C1 (stereo not shown) [Example 15, 4-[N-[1-[N-(benzofuran-2-ylcarbonyl)amino]cyclohexanecarbonyl]amino]-1-(2-formylphenyl)piperidin-3-one]  1.45 nM
11. CN(C)c1ccc(C(=O)NC2(C(=O)NC3CCN(c4ccc(F)cc4S(C)(=O)=O)CC3=O)CCCCC2)cc1 (stereo not shown) [Example 173, 4-[N-[1-[N-(4-(dimethylamino)benzoyl)amino]cyclohexanecarbonyl]amino]-1-(4-fluoro-2-methanesulfonylphenyl)piperidin-3-one hydrochloride]  1.59 nM
12. O=C(NC1(C(=O)NC2CCN(c3ccc(F)cc3N3CCCC3=O)CC2=O)CCCCC1)c1ccc(OCCN2CCOCC2)cc1 (stereo not shown) [Example 170, 4-[N-[1-[N-(4-(2-morpholinethoxy)benzoyl)amino]cyclohexanecarbonyl]amino]-1-[4-fluoro-2-(pyrrolidin-2-one-1-yl)phenyl]piperidin-3-one]  1.69 nM
13. CC(C)[S+]([O-])c1ccccc1N1CCC(NC(=O)C2(NC(=O)c3cc4ccccc4o3)CCCCC2)C(=O)C1 (stereo not shown) [Example 70, 4-[N-[1-[N-(benzofuran-2-ylcarbonyl)amino]cyclohexanecarbonyl]amino]-1-(2-isopropylsulfinylphenyl)piperidin-3-one]  1.73 nM
14. O=C(NC1(C(=O)NC2CCN(c3ccccc3-c3ccco3)CC2=O)CCCCC1)c1cc2ccccc2o1 (stereo not shown) [Example 34, 4-[N-[1-[N-(benzofuran-2-ylcarbonyl)amino]cyclohexanecarbonyl]amino]-1-[2-(2-furyl)phenyl]piperidin-3-one]  1.93 nM
15. CS(=O)(=O)c1ccccc1N1CCC(NC(=O)C2(NC(=O)c3ccc(Cl)s3)CCCCC2)C(=O)C1 (stereo not shown) [Example 114, 4-[N-[1-[N-(5-chloro-thiophen-2-ylcarbonyl)amino]cyclohexanecarbonyl]amino]-1-(2-methanesulfonylphenyl)piperidin-3-one]  1.93 nM
16. CS(=O)(=O)c1ccc(F)cc1N1CCC(NC(=O)C2(NC(=O)c3ccc(Cl)s3)CCCCC2)C(=O)C1 (stereo not shown) [Example 117, 4-[N-[1-[N-(5-chloro-thiophen-2-ylcarbonyl)amino]cyclohexanecarbonyl]amino]-1-(5-fluoro-2-methanesulfonylphenyl)piperidin-3-one]  2.13 nM
17. O=C(NC1(C(=O)NC2CCN(c3ccccc3Br)CC2=O)CCCCC1)c1cc2ccccc2o1 (stereo not shown) [Example 35, 4-[N-[1-[N-(benzofuran-2-ylcarbonyl)amino]cyclohexanecarbonyl]amino]-1-(2-bromophenyl)piperidin-3-one]  2.35 nM
18. CS(=O)(=O)c1ccccc1N1CCC(NC(=O)C2(NC(=O)c3ccc(OCCN4CCCC4)cc3)CCCCC2)C(=O)C1 (stereo not shown) [Example 159, 4-[N-[1-[N-(4-(2-pyrrolidinethoxy)benzoyl)amino]cyclohexanecarbonyl]amino]-1-(2-methanesulfonylphenyl)piperidin-3-one hydrochloride]  3.25 nM
19. CC(C)(C)OC(=O)c1ccccc1N1CCC(NC(=O)C2(NC(=O)c3cc4ccccc4o3)CCCCC2)C(=O)C1 (stereo not shown) [Example 37, 4-[N-[1-[N-(benzofuran-2-ylcarbonyl)amino]cyclohexanecarbonyl]amino]-1-[2-(tert-butoxycarbonyl)phenyl]piperidin-3-one]  3.78 nM
20. CCSc1ccccc1N1CCC(NC(=O)C2(NC(=O)c3cc4ccccc4o3)CCCCC2)C(=O)C1 (stereo not shown) [Example 42, 4-[N-[1-[N-(benzofuran-2-ylcarbonyl)amino]cyclohexanecarbonyl]amino]-1-(2-ethylthiophenyl)piperidin-3-one]  3.87 nM
21. O=C(NC1(C(=O)NC2CCN(c3ccccc3[N+](=O)[O-])CC2=O)CCCCC1)c1ccc2ccccc2n1 (stereo not shown) [Example 138, 4-[N-[1-[N-(quinolin-2-ylcarbonyl)amino]cyclohexanecarbonyl]amino]-1-(2-nitrophenyl)piperidin-3-one]  4.82 nM
22. CS(=O)(=O)c1ccc(N2CCC(NC(=O)C3(NC(=O)c4cc5ccccc5o4)CCCCC3)C(=O)C2)cc1 (stereo not shown) [Example 5, 4-[N-[1-[N-(benzofuran-2-ylcarbonyl)amino]cyclohexanecarbonyl]amino]-1-(4-methanesulfonylphenyl)piperidin-3-one]  5.05 nM
23. CS(=O)(=O)c1c(F)cccc1N1CCC(NC(=O)C2(NC(=O)c3ccco3)CCCCC2)C(=O)C1 (stereo not shown) [Example 77, 4-[N-[1-[N-(furan-2-ylcarbonyl)amino]cyclohexanecarbonyl]amino]-1-(3-fluoro-2-methylsulfonylphenyl)piperidin-3-one]  5.97 nM
24. Cc1ccsc1C(=O)NC1(C(=O)NC2CCN(c3ccccc3S(C)(=O)=O)CC2=O)CCCCC1 (stereo not shown) [Example 121, 4-[N-[1-[N-(3-methyl-thiophen-2-ylcarbonyl)amino]cyclohexanecarbonyl]amino]-1-(2-methanesulfonylphenyl)piperidin-3-one]  7.73 nM
25. CCOc1ccccc1N1CCC(NC(=O)C2(NC(=O)c3cc4ccccc4o3)CCCCC2)C(=O)C1 (stereo not shown) [Example 27, 4-[N-[1-[N-(benzofuran-2-ylcarbonyl)amino]cyclohexanecarbonyl]amino]-1-(2-ethoxyphenyl)piperidin-3-one]  8.07 nM
26. N#Cc1c(F)cccc1N1CCC(NC(=O)C2(NC(=O)c3cc4ccccc4o3)CCCCC2)C(=O)C1 (stereo not shown) [Example 8, 4-[N-[1-[N-(benzofuran-2-ylcarbonyl)amino]cyclohexanecarbonyl]amino]-1-(2-cyano-3-fluorophenyl)piperidin-3-one]  10.4 nM
27. Cc1cc(C(=O)NC2(C(=O)NC3CCN(c4ccccc4S(C)(=O)=O)CC3=O)CCCCC2)no1 (stereo not shown) [Example 106, 4-[N-[1-[N-(5-methyl-isoxazol-3-ylcarbonyl)amino]cyclohexanecarbonyl]amino]-1-(2-methanesulfonylphenyl)piperidin-3-one]  19.9 nM
28. O=C(NC1(C(=O)NC2CCN(c3ccccc3N3CCOCC3)CC2=O)CCCCC1)c1cc2ccccc2o1 (stereo not shown) [Example 26, 4-[N-[1-[N-(benzofuran-2-ylcarbonyl)amino]cyclohexanecarbonyl]amino]-1-[2-(4-morpholino)phenyl]piperidin-3-one]  19.9 nM
